For data set [1], the system named is E. coli. Nature of the data set: microbe, parasite or virus in culture. Format: cell-based, Escherichia coli. The procedure:
(§1) Quantification of the antimicrobial resistance against various AMPs was carried out by measuring the bacterial growth in the presence of peptides at serial dilutes in 96 well plates in a microplate (96-well plate) reader Infinite® M200 PRO Multimode Microplate Reader (Tecan, Maennedorf, Switzerland) according to our recent reports. All bacterial strains were incubated at 32 °C for 13–18 h at 200 rpm. Optical density measurements (λ = 550 nm) were taken automatically at 10 min intervals. Antimicrobial resistance activity was quantified as the minimum inhibitory concentration (MIC)—the lowest concentration of a peptide which prevents growth of bacterial cells.

Data set [2] concerns P. aeruginosa. In words: microbe, parasite or virus in culture. Format: cell-based, Pseudomonas aeruginosa. How it is done: as §1
Data set [3] has as its system K. pneumonia. Nature of the data set: microbe, parasite or virus in culture. It is filed as cell-based, Klebsiella pneumoniae. How it is done: as §1
In data set [4] the test system is E. faecium. Nature of the data set: microbe, parasite or virus in culture. It is filed as cell-based, Enterococcus faecium. The procedure: as §1
Data set [5] deals with S. aureus. In words: microbe, parasite or virus in culture. Format: cell-based, Staphylococcus aureus. How it is done:
as §1

The test system of data set [6] is C. acnes. Nature of the data set: microbe, parasite or virus in culture. Format: cell-based, Cutibacterium acnes. How it is done:
as §1

The test system of data set [7] is BALB/c 3T3 murine fibroblast cell line. In words: Cytotoxicity, neutral red uptake assay. It is filed as cell-based. The text has this:
(§2) The BALB/c 3T3 murine fibroblast cell line was obtained from ATCC (American Type Culture Collection, Manassas, VA, USA). Primary human dermal fibroblasts were isolated by enzymatic digestion from skin biopsies in the Laboratory of Bioanalytical and Biodosimetry Methods, University of Latvia, in accordance with the approval of the Committee of Research Ethics of the Institute of Cardiology and Regenerative Medicine, University of Latvia. Cells were propagated in DMEM medium (Sigma, Irvine, UK), supplemented with 1% penicillin (100 U/mL)–streptomycin (100 μg/mL), and 10% calf serum (Sigma, St. Louis, MO, USA) for Balb/c 3T3 cell line and fetal bovine serum (Sigma, St. Louis, MO, USA) for primary dermal fibroblasts. All cultivations were performed in a humidified 5% CO2 atmosphere at 37 °C.
(§3) The cytotoxicity of the peptides was tested in the BALB/c3T3 cell line and primary dermal fibroblasts by the neutral red (NR) uptake assay. Cells were seeded in 96-well plates at a density of 5 × 10^3 cells per well. After 24 h of incubation, peptides in a concentration range of 3.9 to 500 μg/mL were added. Dilutions were made in a cell cultivation medium. Cultivation in the presence of extracts was performed for 48 h. Afterwards, plates were washed with phosphate-buffered saline (PBS) (Sigma, Irvine, UK), and a 25 µg/mL NR solution (Sigma, Irvine, UK) diluted in 5%-fetal-calf-serum-containing-media was added. After 3 h, incubation in a humidified 5% CO2 atmosphere at 37 °C, the plate was washed with PBS, and the NR taken up by viable cells was extracted using desorbing fixative (50% ethanol/1% acetic acid/49% water). Absorbance at 540 nm was measured using a microplate reader Tecan Infinite® 200 PRO (Tecan Group Ltd., Mannedorf, Switzerland). Cytotoxicity was expressed as a concentration-dependent reduction in the uptake of NR, compared to the untreated controls and calculated using the following equation: Cell viability (%)=Abs540nm(treatment)−Abs540nm(background)/Abs540nm(untreated control)−Abs540nm(background)×100%

Data set [8] deals with primary human dermal fibroblasts. Format: cell-based. As to conditions: 48 h.
Excerpt: as §2, §3

The subject of data set [9] is fresh human blood (red blood cell lysis). In words: Hemolysis assay. Format: cell-based. The conditions noted are these: for hemolysis ratio (HR): red cells of human, 1 h. How it is done:
A hemolysis test was performed to assess the hemocompatibility of the peptides. Blood from healthy donors was collected in Monovette vacutainers containing Ethylenediamine tetra-acetic acid (EDTA). Blood was diluted with 0.9% sodium chloride solution supplemented with 10 U/mL heparin (4:5 ratio by volume). Peptides were added to 1.5 mL vials containing fresh 0.49 mL PBS and incubated at 37 °C and 5% CO2 for 30 min, and 10 μL of diluted blood was added to each vial and incubated at 37 °C and 5% CO2 for 1 h. PBS was used as a negative control and deionized water was used as a positive control. After incubation tubes were centrifuged at 3000 rpm for 5 min, the supernatants were collected, and the absorbance was measured at a wavelength of 545 nm in a microplate reader Tecan Infinite® 200 PRO (Tecan Group Ltd., Mannedorf, Switzerland).
The hemolytic ratio (HR) was calculated by the following equation: HR (%)=(Abs(sample)−Abs(negative control))/(Abs (positive control−Abs(negative control))×100%

Each structure is given as a SMILES string. Converted amounts (≈) assume the structure as drawn. Where a SMILES comes first, the peptide text is derived from it.

Take `CC[C@H](C)[C@H](NC(=O)[C@H](Cc1ccccc1)NC(=O)[C@H](CCCCN)NC(=O)[C@H](CCCCN)NC(=O)[C@H](Cc1ccccc1)NC(=O)[C@H](CCCCN)NC(=O)[C@H](CCCCN)NC(=O)[C@H](C)NC(=O)[C@H](Cc1ccccc1)NC(=O)[C@H](CCCCN)NC(=O)[C@H](CCCCN)NC(=O)[C@@H](NC(=O)[C@@H](N)Cc1ccccc1)[C@@H](C)CC)C(=O)N[C@@H](CCCCN)C(=O)N[C@@H](CCCCN)C(=O)N[C@@H](Cc1ccccc1)C(=O)N[C@@H](C)C(=O)N[C@@H](CCCCN)C(=O)N[C@@H](Cc1ccccc1)C(=O)N[C@@H](C)C(=O)N[C@@H](Cc1ccccc1)C(=O)N[C@@H](C)C(=O)N[C@@H](Cc1ccccc1)C(=O)O` [Peptide R1] (H-FIKKFAKKFKKFIKKFAKFAFAF-OH; N-terminus and C-terminus assumed): the “MIC E. coli” value in [1] amounted to 8.0 µg/mL (≈ 2.8 µM). Moreover, the “MIC P. aeruginosa” value in data set [2] stood at 8.0 µg/mL (≈ 2.8 µM). Besides, in [3], the “MIC K. pneumonia” value amounted to 4.0 µg/mL (≈ 1.4 µM). Besides, in data set [4], the “MIC E. faecium” value amounted to 16.0 µg/mL (≈ 5.6 µM). Moreover, in data set [5], the “MIC S. aureus” value worked out at 8.0 µg/mL (≈ 2.8 µM). In addition, in [6], the “MIC C. acnes” value was determined as 2.0 µg/mL (≈ 0.699 µM) and the “Therapeutic Index C. acnes” value was 64.04. Moreover, the “IC50, viability of Balb/c 3T3 cells” value in data set [7] (48 h) was 63.84 µg/mL. Also, in data set [7] (Balb/c 3T3, at 15.63 μg/mL and above), the “decrease of cell viability” value is “more than 62%”. In [8], the “IC50, viability of human primary dermal fibroblasts” value is 128.07 µg/mL.

For `CC(C)C[C@H](NC(=O)[C@H](CS)NC(=O)[C@H](Cc1ccccc1)NC(=O)[C@@H](N)CCCCN)C(=O)N[C@@H](CCCCN)C(=O)N[C@@H](Cc1ccccc1)C(=O)N[C@@H](CS)C(=O)N[C@@H](Cc1ccccc1)C(=O)N[C@@H](CCCCN)C(=O)NCC(=O)N[C@@H](Cc1ccccc1)C(=O)N[C@@H](CS)C(=O)N[C@@H](Cc1ccccc1)C(=O)N[C@@H](CCCCN)C(=O)N[C@@H](C)C(=O)N[C@@H](CS)C(=O)NCC(=O)N[C@@H](CCCCN)C(=O)O` [Peptide R11] (H-KFCLKFCFKGFCFKACGK-OH; N-terminus and C-terminus assumed), in data set [1], the “Therapeutic Index E. coli” value was determined as 0.9. Also, the “Therapeutic Index P. aeruginosa” value in data set [2] amounted to 1.7. Also, the “Therapeutic Index K. pneumonia” value in [3] is given as 1.7. Further, the “Therapeutic Index E. faecium” value in [4] was 6.7. Moreover, in [5], the “Therapeutic Index S. aureus” value is recorded as 6.7. Besides, in [6], the “MIC C. acnes” value came out at 0.3 µg/mL (≈ 0.142 µM) and the “Therapeutic Index C. acnes” value is given as 356.7. This compound came in with a concentrations not cytotoxic in data set [7] (Balb/c 3T3, neutral red uptake, 48 h, tested 3.9–500 μg/mL) of 3900 ng/mL. The “hemolysis ratio (HR)” value in data set [9] (32 μg/mL) is given as “below 2%”. Besides, the “hemolysis ratio (HR)” value in data set [9] (64 μg/mL) was 2.85–7.03%.

For the compound `CC[C@H](C)[C@H](NC(=O)[C@H](CCCCN)NC(=O)[C@@H](N)CCCCN)C(=O)N[C@@H](C)C(=O)N[C@@H](CCCCN)C(=O)N[C@@H](CCCCN)C(=O)N[C@@H](Cc1ccccc1)C(=O)N[C@@H](Cc1c[nH]c2ccccc12)C(=O)N[C@@H](CCCCN)C(=O)N[C@@H](CCCCN)C(=O)N[C@@H](Cc1ccccc1)C(=O)N[C@@H](Cc1c[nH]c2ccccc12)C(=O)N[C@@H](CCCCN)C(=O)N[C@@H](Cc1ccccc1)C(=O)N[C@@H](Cc1c[nH]c2ccccc12)C(=O)N1CCC[C@H]1C(=O)N[C@@H](CCCCN)C(=O)N[C@@H](Cc1ccccc1)C(=O)N[C@@H](Cc1c[nH]c2ccccc12)C(=O)N[C@@H](CCCCN)C(=O)N[C@H](C(=O)N[C@@H](Cc1ccccc1)C(=O)N[C@@H](CCCCN)C(=O)N[C@@H](CCCCN)C(=O)O)[C@@H](C)CC` [Peptide R14] (H-KKIAKKFWKKFWKFWPKFWKIFKK-OH), in data set [1], the “MIC E. coli” value was determined as 16.0 µg/mL (≈ 4.84 µM) and the “Therapeutic Index E. coli” value is 2.2. Besides, in data set [2], the “MIC P. aeruginosa” value worked out at 4.0 µg/mL (≈ 1.21 µM) and the “Therapeutic Index P. aeruginosa” value is recorded as 8.8. Also, in data set [3], the “MIC K. pneumonia” value came to 4.0 µg/mL (≈ 1.21 µM) and the “Therapeutic Index K. pneumonia” value amounted to 8.8. In [4], the “MIC E. faecium” value is 8.0 µg/mL (≈ 2.42 µM) and the “Therapeutic Index E. faecium” value is given as 4.4. Also, in data set [5], the “MIC S. aureus” value came out at 8.0 µg/mL (≈ 2.42 µM) and the “Therapeutic Index S. aureus” value turned out to be 4.4. In addition, the “MIC C. acnes” value in [6] amounted to 1.0 µg/mL (≈ 0.303 µM). The “IC50, viability of Balb/c 3T3 cells” value in [7] (48 h) was 21.07 µg/mL. Also, in [9], the “hemolytic activity” value is given as “strong hemolytic activity” and the “hemolysis ratio (HR)” value is listed as more than 5%.

The record behind these values is article PMC10044245, “Comparative Evaluation of Existing and Rationally Designed Novel Antimicrobial Peptides for Treatment of Skin and Soft Tissue Infections” (Antibiotics, 2023).
